{"source": "patent US6479435B1", "about": "“Diaryl ethers and processes for their preparation and herbicidal and desiccant compositions containing them” (ISK Americas Incorporated, priority 1997, dated 2002)", "format_in_all_cases": "in vivo", "key": {"[1]": {"tested_on": "Johnsongrass (Sorghum halepense, SORHA)", "assay": "Pre-emerge greenhouse herbicide test, phytotoxicity rating", "conditions": "Sorghum halepense, pre-emergence, 336 h, 14 days after application, rating scale 0-100; for pest or weed control at 125 g/ha: Rate 125 g al/ha; for pest or weed control at 500 g/ha: Rate 500 g al/ha", "how_it_was_run": "(§1)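 Seeds sown in sandy loam one day before track-sprayer application of acetone solutions at 125–1000 g ai/ha (187 l/ha), then surface-watered to incorporate and bottom-watered. Injury scored visually at 14 days on a 0–100 scale (0 no damage, 100 complete death).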"}, "[2]": {"tested_on": "barnyardgrass (Echinochloa crusgalli, ECHCG)", "assay": "Pre-emerge greenhouse herbicide test, phytotoxicity rating", "conditions": "Echinochloa crus-galli, pre-emergence, 336 h, 14 days after application, rating scale 0-100; for pest or weed control at 125 g/ha: Rate 125 g al/ha; for pest or weed control at 500 g/ha: Rate 500 g al/ha", "how_it_was_run": "as §1"}, "[3]": {"tested_on": "green foxtail (Setaria viridis, SETVI)", "assay": "Pre-emerge greenhouse herbicide test, phytotoxicity rating", "conditions": "Setaria viridis, pre-emergence, 336 h, 14 days after application, rating scale 0-100; for pest or weed control at 125 g/ha: Rate 125 g al/ha; for pest or weed control at 500 g/ha: Rate 500 g al/ha", "how_it_was_run": "as §1"}, "[4]": {"tested_on": "lambsquarters (Chenopodium album, CHEAL)", "assay": "Pre-emerge greenhouse herbicide test, phytotoxicity rating", "conditions": "Chenopodium album, pre-emergence, 336 h, 14 days after application, rating scale 0-100; for pest or weed control at 125 g/ha: Rate 125 g al/ha; for pest or weed control at 500 g/ha: Rate 500 g al/ha", "how_it_was_run": "as §1"}, "[5]": {"tested_on": "redroot pigweed (Amaranthus retroflexus, AMARE)", "assay": "Pre-emerge greenhouse herbicide test, phytotoxicity rating", "conditions": "Amaranthus retroflexus, pre-emergence, 336 h, 14 days after application, rating scale 0-100; for pest or weed control at 125 g/ha: Rate 125 g al/ha; for pest or weed control at 500 g/ha: Rate 500 g al/ha", "how_it_was_run": "as §1"}, "[6]": {"tested_on": "sicklepod (Cassia obtusifolia, CASOB)", "assay": "Pre-emerge greenhouse herbicide test, phytotoxicity rating", "conditions": "Senna obtusifolia, pre-emergence, 336 h, 14 days after application, rating scale 0-100; for pest or weed control at 125 g/ha: Rate 125 g al/ha; for pest or weed control at 500 g/ha: Rate 500 g al/ha", "how_it_was_run": "as §1"}, "[7]": {"tested_on": "Johnsongrass (Sorghum halepense, SORHA)", "assay": "Post-emerge greenhouse herbicide test, phytotoxicity rating", "conditions": "Sorghum halepense, post-emergence, 336 h, 14 days after application, scale 0-100; for pest or weed control at 63 g/ha: rate 63 g ai/ha; for pest or weed control at 500 g/ha: rate 500 g ai/ha", "how_it_was_run": "(§2)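 Plants at the 2-3 leaf stage, sown 8-21 days earlier, were track-sprayed post-emergence with compound in acetone plus 0.25% v/v non-ionic surfactant at 63-1000 g ai/ha (187 l/ha). Damage was rated at 14 days on a 0-100 scale (0 none, 100 all plants dead), for both crop injury and weed control.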"}, "[8]": {"tested_on": "barnyardgrass (Echinochloa crusgalli, ECHCG)", "assay": "Post-emerge greenhouse herbicide test, phytotoxicity rating", "conditions": "Echinochloa crus-galli, post-emergence, 336 h, 14 days after application, scale 0-100; for pest or weed control at 63 g/ha: rate 63 g ai/ha; for pest or weed control at 500 g/ha: rate 500 g ai/ha", "how_it_was_run": "as §2"}, "[9]": {"tested_on": "green foxtail (Setaria viridis, SETVI)", "assay": "Post-emerge greenhouse herbicide test, phytotoxicity rating", "conditions": "Setaria viridis, post-emergence, 336 h, 14 days after application, scale 0-100; for pest or weed control at 63 g/ha: rate 63 g ai/ha; for pest or weed control at 500 g/ha: rate 500 g ai/ha", "how_it_was_run": "as §2"}, "[10]": {"tested_on": "ivyleaf morningglory (Ipomoea hederacea, IPOHE)", "assay": "Post-emerge greenhouse herbicide test, phytotoxicity rating", "conditions": "Ipomoea, post-emergence, 336 h, 14 days after application, scale 0-100; for pest or weed control at 63 g/ha: rate 63 g ai/ha; for pest or weed control at 500 g/ha: rate 500 g ai/ha", "how_it_was_run": "as §2"}, "[11]": {"tested_on": "lambsquarters (Chenopodium album, CHEAL)", "assay": "Post-emerge greenhouse herbicide test, phytotoxicity rating", "conditions": "Chenopodium album, post-emergence, 336 h, 14 days after application, scale 0-100; for pest or weed control at 63 g/ha: rate 63 g ai/ha; for pest or weed control at 500 g/ha: rate 500 g ai/ha", "how_it_was_run": "as §2"}, "[12]": {"tested_on": "large crabgrass (Digitaria sanguinalis, DIGSA)", "assay": "Post-emerge greenhouse herbicide test, phytotoxicity rating", "conditions": "Digitaria sanguinalis, post-emergence, 336 h, 14 days after application, scale 0-100; for pest or weed control at 63 g/ha: rate 63 g ai/ha; for pest or weed control at 500 g/ha: rate 500 g ai/ha", "how_it_was_run": "as §2"}, "[13]": {"tested_on": "redroot pigweed (Amaranthus retroflexus, AMARE)", "assay": "Post-emerge greenhouse herbicide test, phytotoxicity rating", "conditions": "Amaranthus retroflexus, post-emergence, 336 h, 14 days after application, scale 0-100; for pest or weed control at 63 g/ha: rate 63 g ai/ha; for pest or weed control at 500 g/ha: rate 500 g ai/ha", "how_it_was_run": "as §2"}, "[14]": {"tested_on": "sicklepod (Cassia obtusifolia, CASOB)", "assay": "Post-emerge greenhouse herbicide test, phytotoxicity rating", "conditions": "Senna obtusifolia, post-emergence, 336 h, 14 days after application, scale 0-100; for pest or weed control at 63 g/ha: rate 63 g ai/ha; for pest or weed control at 500 g/ha: rate 500 g ai/ha", "how_it_was_run": "as §2"}, "[15]": {"tested_on": "velvetleaf (Abutilon theophrasti, ABUTH)", "assay": "Post-emerge greenhouse herbicide test, phytotoxicity rating", "conditions": "Abutilon theophrasti, post-emergence, 336 h, 14 days after application, scale 0-100; for pest or weed control at 63 g/ha: rate 63 g ai/ha; for pest or weed control at 500 g/ha: rate 500 g ai/ha", "how_it_was_run": "as §2"}}, "data": [{"smiles": "Nn1c(C(F)(F)F)cc(=O)n(-c2cc(Oc3ccccc3)c(Cl)cc2F)c1=O", "note": "[Compound 9-26, 1-Amino-3-[4-chloro-2-fluoro-5-phenoxyphenyl]-6-trifluoromethyl-1,2,3,4-tetrahydropyrimidine-2,4-dione]", "values": [{"measurement": "pest or weed control at 125 g/ha", "setting": "[1]", "result": 90, "unit": "%"}, {"measurement": "pest or weed control at 500 g/ha", "setting": "[1]", "result": 100, "unit": "%"}, {"measurement": "pest or weed control at 125 g/ha", "setting": "[2]", "result": 95, "unit": "%"}, {"measurement": "pest or weed control at 500 g/ha", "setting": "[2]", "result": 100, "unit": "%"}, {"measurement": "pest or weed control at 125 g/ha", "setting": "[3]", "result": 100, "unit": "%"}, {"measurement": "pest or weed control at 500 g/ha", "setting": "[3]", "result": 100, "unit": "%"}, {"measurement": "pest or weed control at 125 g/ha", "setting": "[4]", "result": 100, "unit": "%"}, {"measurement": "pest or weed control at 500 g/ha", "setting": "[4]", "result": 100, "unit": "%"}, {"measurement": "pest or weed control at 125 g/ha", "setting": "[5]", "result": 100, "unit": "%"}, {"measurement": "pest or weed control at 500 g/ha", "setting": "[5]", "result": 100, "unit": "%"}, {"measurement": "pest or weed control at 125 g/ha", "setting": "[6]", "result": 95, "unit": "%"}, {"measurement": "pest or weed control at 500 g/ha", "setting": "[6]", "result": 100, "unit": "%"}, {"measurement": "pest or weed control at 63 g/ha", "setting": "[7]", "result": 90, "unit": "%"}, {"measurement": "pest or weed control at 500 g/ha", "setting": "[7]", "result": 100, "unit": "%"}, {"measurement": "pest or weed control at 63 g/ha", "setting": "[8]", "result": 80, "unit": "%"}, {"measurement": "pest or weed control at 500 g/ha", "setting": "[8]", "result": 100, "unit": "%"}, {"measurement": "pest or weed control at 63 g/ha", "setting": "[9]", "result": 100, "unit": "%"}, {"measurement": "pest or weed control at 500 g/ha", "setting": "[9]", "result": 100, "unit": "%"}, {"measurement": "pest or weed control at 63 g/ha", "setting": "[10]", "result": 100, "unit": "%"}, {"measurement": "pest or weed control at 500 g/ha", "setting": "[10]", "result": 100, "unit": "%"}, {"measurement": "pest or weed control at 63 g/ha", "setting": "[11]", "result": 100, "unit": "%"}, {"measurement": "pest or weed control at 500 g/ha", "setting": "[11]", "result": 100, "unit": "%"}, {"measurement": "pest or weed control at 63 g/ha", "setting": "[12]", "result": 80, "unit": "%"}, {"measurement": "pest or weed control at 500 g/ha", "setting": "[12]", "result": 50, "unit": "%"}, {"measurement": "pest or weed control at 63 g/ha", "setting": "[13]", "result": 100, "unit": "%"}, {"measurement": "pest or weed control at 500 g/ha", "setting": "[13]", "result": 100, "unit": "%"}, {"measurement": "pest or weed control at 63 g/ha", "setting": "[14]", "result": 100, "unit": "%"}, {"measurement": "pest or weed control at 500 g/ha", "setting": "[14]", "result": 100, "unit": "%"}, {"measurement": "pest or weed control at 63 g/ha", "setting": "[15]", "result": 100, "unit": "%"}, {"measurement": "pest or weed control at 500 g/ha", "setting": "[15]", "result": 100, "unit": "%"}]}, {"smiles": "Nn1c(C(F)(F)F)cc(=S)n(-c2cc(Oc3ccc(Cl)cn3)c(Cl)cc2F)c1=O", "note": "[Compound 9-28, 1-amino-3-[4-chloro-2-fluoro-5-(5-chloro-2-pyridyloxy)phenyl]-6-trifluoromethyl-1,2,3,4tetrahydro-2-oxo-4-thioxopyrimidine]", "values": [{"measurement": "pest or weed control at 125 g/ha", "setting": "[1]", "result": 20, "unit": "%"}, {"measurement": "pest or weed control at 500 g/ha", "setting": "[1]", "result": 80, "unit": "%"}, {"measurement": "pest or weed control at 125 g/ha", "setting": "[2]", "result": 20, "unit": "%"}, {"measurement": "pest or weed control at 500 g/ha", "setting": "[2]", "result": 80, "unit": "%"}, {"measurement": "pest or weed control at 125 g/ha", "setting": "[3]", "result": 100, "unit": "%"}, {"measurement": "pest or weed control at 500 g/ha", "setting": "[3]", "result": 100, "unit": "%"}, {"measurement": "pest or weed control at 125 g/ha", "setting": "[4]", "result": 100, "unit": "%"}, {"measurement": "pest or weed control at 500 g/ha", "setting": "[4]", "result": 100, "unit": "%"}, {"measurement": "pest or weed control at 125 g/ha", "setting": "[5]", "result": 100, "unit": "%"}, {"measurement": "pest or weed control at 500 g/ha", "setting": "[5]", "result": 100, "unit": "%"}, {"measurement": "pest or weed control at 125 g/ha", "setting": "[6]", "result": 50, "unit": "%"}, {"measurement": "pest or weed control at 500 g/ha", "setting": "[6]", "result": 50, "unit": "%"}, {"measurement": "pest or weed control at 63 g/ha", "setting": "[7]", "result": 0, "unit": "%"}, {"measurement": "pest or weed control at 500 g/ha", "setting": "[7]", "result": 30, "unit": "%"}, {"measurement": "pest or weed control at 63 g/ha", "setting": "[8]", "result": 0, "unit": "%"}, {"measurement": "pest or weed control at 500 g/ha", "setting": "[8]", "result": 10, "unit": "%"}, {"measurement": "pest or weed control at 63 g/ha", "setting": "[9]", "result": 25, "unit": "%"}, {"measurement": "pest or weed control at 500 g/ha", "setting": "[9]", "result": 50, "unit": "%"}, {"measurement": "pest or weed control at 63 g/ha", "setting": "[10]", "result": 95, "unit": "%"}, {"measurement": "pest or weed control at 500 g/ha", "setting": "[10]", "result": 100, "unit": "%"}, {"measurement": "pest or weed control at 63 g/ha", "setting": "[11]", "result": 80, "unit": "%"}, {"measurement": "pest or weed control at 500 g/ha", "setting": "[11]", "result": 100, "unit": "%"}, {"measurement": "pest or weed control at 63 g/ha", "setting": "[12]", "result": 0, "unit": "%"}, {"measurement": "pest or weed control at 500 g/ha", "setting": "[12]", "result": 0, "unit": "%"}, {"measurement": "pest or weed control at 63 g/ha", "setting": "[13]", "result": 90, "unit": "%"}, {"measurement": "pest or weed control at 500 g/ha", "setting": "[13]", "result": 100, "unit": "%"}, {"measurement": "pest or weed control at 63 g/ha", "setting": "[14]", "result": 10, "unit": "%"}, {"measurement": "pest or weed control at 500 g/ha", "setting": "[14]", "result": 50, "unit": "%"}, {"measurement": "pest or weed control at 63 g/ha", "setting": "[15]", "result": 90, "unit": "%"}, {"measurement": "pest or weed control at 500 g/ha", "setting": "[15]", "result": 100, "unit": "%"}]}]}
